Measured values from patent US20050009052A1 (priority 2003, published 2005).

Tests used:
pde2Δ/pde2Δ strain [1] = assay: Differential Tag Length Analysis (DTLA) of 11-strain mixed yeast culture with inhibitor; assay type: cell-based, Saccharomyces cerevisiae; settings: 20 hours
Method: (§1) Strains, media and inhibitors.
(§2) Tag amplification and capillary electrophoresis. Oligonucleotides Fluor-1 (6-Fam-[…]) and Pho-1 (Phosphate-[…]) were used for the amplification of tag DNAs. PCR reactions were performed in 50 μl reaction volume containing the 2 primers at a final concentration of 1 μM each and 2.5 units of Stoffel fragment AmpliTaq DNA polymerase (Applied Biosystems, Foster City, Calif.). After an initial 2 min denaturing step at 94° C., the reactions underwent 30 amplification cycles (94° C., 30 sec; 60° C., 30 sec; 72° C., 30 sec with a 6 sec increase in extension time per cycle) followed by a post-amplification extension step (72° C., 10 min). As a template for the PCR reactions, 100 ng of plasmid DNA, 700 ng of genomic DNA (extracted from yeast strains using MasterPure Yeast DNA purification kit; Epicentre, Madison, Wis.), or an equivalent to 0.5 μl of saturated culture of yeast protoplasts (prepared by using lyticase) (see, e.g., Chen et al., Biotechniques 19:744-746 (1995)) was used. The PCR products were incubated with λ-exonuclease for 1 h at 37° C. and then purified using MinElute PCR purification kit (QIAGEN Inc., Valencia, Calif.). After 1 h digestion with EcoRI, the PCR products were again purified with the same kit and adjusted to 70% formamide and 1 mM EDTA and analyzed by capillary electrophoresis on ABI Prism 3700 DNA analyzer (Applied Biosystems, Foster City, Calif.) using 3700 POP-5 polymer.
(§3) Data analysis. To access the raw fluorescence data collected by ABI Prism 3700 DNA analyzer, a Visual Basic program was used that extracted the electropherogram values and converted them into a text file format. Peak quantitation was then performed using Caesar Workstation 5.0 (SciBridge Software, Los Angeles, Calif.). In the majority of cases, the relative representation of each tag in the PCR product was calculated by dividing the area under the corresponding tag peak by the sum of all tag peak areas. For the measurement of different input amounts of tag 42, the average peak area of the other 10 tags was first calculated. The area value of tag 42 was then divided by this averaged value to give normalized tag 42 area.

bro1Δ/bro1Δ strain [2] = assay: as above; assay type: cell-based, Saccharomyces cerevisiae; settings: 20 hours; for increase of strain representation in the mixture: staurosporine 1 μM, latrunculin B 2 μg/ml
Method: as §1, §2, §3

alg7Δ/ALG7 strain [3] = assay type: cell-based, Saccharomyces cerevisiae; settings: alg7Δ/ALG7 grown individually, YPD, 30° C.; staurosporine 1 μM, tunicamycin 0.4 μg/ml
rlm1Δ/rlm1Δ strain [4] = assay: Growth of individually cultured yeast strain with inhibitor (O.D.600); assay type: cell-based, Saccharomyces cerevisiae; settings: rlm1Δ/rlm1Δ grown individually, YPD, 30° C.; staurosporine 1 μM, caffeine 8 mM, tunicamycin 0.4 μg/ml
rlm1Δ/rlm1Δ strain [5] = assay: Differential Tag Length Analysis (DTLA) of 11-strain mixed yeast culture with inhibitor; assay type: cell-based, Saccharomyces cerevisiae; settings: 20 hours
Method: as §1, §2, §3

alg7Δ/ALG7 strain [6] = assay: as above; assay type: cell-based, Saccharomyces cerevisiae; settings: alg7Δ/ALG7 in mixed culture, 20 hours; tunicamycin 0.4 μg/ml
Method: as §1, §2, §3

pac10Δ/pac10Δ strain [7] = assay type: cell-based, Saccharomyces cerevisiae; settings: pac10Δ/pac10Δ in mixed culture, 20 hours
gim4Δ/gim4Δ strain [8] = assay type: cell-based, Saccharomyces cerevisiae; settings: gim4Δ/gim4Δ grown individually, YPD, 30° C.; staurosporine 1 μM, latrunculin B 2 μg/ml
pdr5Δ/pdr5Δ strain [9] = assay type: cell-based, Saccharomyces cerevisiae; settings: pdr5Δ/pdr5Δ grown individually, YPD, 30° C.; staurosporine 1 μM, latrunculin B 2 μg/ml
act1Δ/ACT1 strain = assay: Differential Tag Length Analysis (DTLA) of 11-strain mixed yeast culture with inhibitor; assay type: cell-based, Saccharomyces cerevisiae; settings: 20 hours
Method: as §1, §2, §3

pdr5Δ/pdr5Δ strain [10] = assay: as above; assay type: cell-based, Saccharomyces cerevisiae; settings: pdr5Δ/pdr5Δ in mixed culture, 20 hours; latrunculin B 2 μg/ml
Method: as §1, §2, §3

gim4Δ/gim4Δ strain [11] = assay: as above; assay type: cell-based, Saccharomyces cerevisiae
Method: as §1, §2, §3

ACT1/act1Δ strain = assay type: cell-based, Saccharomyces cerevisiae; settings: ACT1/act1Δ grown individually, YPD, 30° C.; staurosporine 1 μM, latrunculin B 2 μg/ml
pde2Δ/pde2Δ strain [12] = assay: Growth of individually cultured yeast strain with inhibitor (O.D.600); assay type: cell-based, Saccharomyces cerevisiae; settings: pde2Δ/pde2Δ grown individually, YPD, 30° C.; staurosporine 1 μM, latrunculin B 2 μg/ml
pac10Δ/pac10Δ strain [13] = assay type: cell-based, Saccharomyces cerevisiae; settings: pac10Δ/pac10Δ grown individually, YPD, 30° C.; staurosporine 1 μM, caffeine 8 mM, latrunculin B 2 μg/ml
bro1Δ/bro1Δ strain [14] = settings: bro1Δ/bro1Δ grown individually, YPD, 30° C.; staurosporine 1 μM, caffeine 8 mM
pkc1Δ/PKC1 strain = assay: Differential Tag Length Analysis (DTLA) of 11-strain mixed yeast culture with inhibitor; assay type: cell-based, Saccharomyces cerevisiae; settings: 20 hours, caffeine 8 mM
Method: as §1, §2, §3

Compound: CN[C@@H]1C[C@H]2O[C@@](C)([C@@H]1OC)n1c3ccccc3c3c4c(c5c6ccccc6n2c5c31)C(=O)NC4 [staurosporine]
- increase of strain representation in the mixture (pde2Δ/pde2Δ strain [1]; staurosporine 1 μM): 200%
- increase of strain representation in the mixture (bro1Δ/bro1Δ strain [2]): 340%

Compound: tunicamycin
- sensitivity of growth to inhibitor (alg7Δ/ALG7 strain [3]): slowed the growth
- sensitivity of growth to inhibitor (rlm1Δ/rlm1Δ strain [4]): slowed the growth
- decrease/reduction of strain relative to the non-treated culture (rlm1Δ/rlm1Δ strain [5]; rlm1Δ/rlm1Δ in mixed culture, staurosporine 1 μM, tunicamycin 0.4 μg/ml): 59%
- reduction of strain relative to the non-treated culture (alg7Δ/ALG7 strain [6]): 83%
- increase of strain representation in the mixture (pac10Δ/pac10Δ strain [7]; tunicamycin 0.4 μg/ml): 82%

Compound: C/C1=C/C(=O)O[C@@H]2C[C@@H](CC[C@H](C)/C=C\CC1)O[C@@](O)([C@@H]1CSC(=O)N1)C2 [latrunculin B]
- sensitivity of growth to inhibitor (gim4Δ/gim4Δ strain [8]): inhibited the growth
- sensitivity of growth to inhibitor (pdr5Δ/pdr5Δ strain [9]): inhibited the growth
- strain representation compared with the non-treated culture (reduced to) (act1Δ/ACT1 strain; act1Δ/ACT1 in mixed culture, latrunculin B 2 μg/ml): less than 50%
- strain representation compared with the non-treated culture (reduced to) (pde2Δ/pde2Δ strain [1]; pde2Δ/pde2Δ in mixed culture, latrunculin B 2 μg/ml): less than 50%
- strain representation compared with the non-treated culture (reduced to) (pdr5Δ/pdr5Δ strain [10]): less than 50%
- strain representation compared with the non-treated culture (reduced to) (gim4Δ/gim4Δ strain [11]; gim4Δ/gim4Δ in mixed culture, 20 hours, latrunculin B 2 μg/ml): less than 50%
- increase of strain representation in the mixture (bro1Δ/bro1Δ strain [2]): 123%
- strain representation compared with the non-treated culture (reduced to) (pac10Δ/pac10Δ strain [7]; latrunculin B 2 μg/ml): less than 50%
- sensitivity of growth to inhibitor (ACT1/act1Δ strain): inhibited the growth
- sensitivity of growth to inhibitor (pde2Δ/pde2Δ strain [12]): inhibited the growth
- sensitivity of growth to inhibitor (pac10Δ/pac10Δ strain [13]): inhibited the growth

Compound: Cn1c(=O)c2c(ncn2C)n(C)c1=O [caffeine]
- sensitivity of growth to inhibitor (bro1Δ/bro1Δ strain [14]): sensitive
- sensitivity of growth to inhibitor (rlm1Δ/rlm1Δ strain [4]): sensitive
- effect on growth of strain in mixed culture (act1Δ/ACT1 strain; caffeine 8 mM): decreased growth
- effect on growth of strain in mixed culture (rlm1Δ/rlm1Δ strain [5]; caffeine 8 mM): decreased growth
- effect on growth of strain in mixed culture (pde2Δ/pde2Δ strain [1]; caffeine 8 mM): decreased growth
- increase of strain representation in the mixture (pkc1Δ/PKC1 strain): 97%
- effect on growth of strain in mixed culture (gim4Δ/gim4Δ strain [11]; caffeine 8 mM): exhibited sensitivity in the mixture
- effect on growth of strain in mixed culture (bro1Δ/bro1Δ strain [2]; caffeine 8 mM): decreased growth
- sensitivity of growth to inhibitor (pac10Δ/pac10Δ strain [13]): sensitive
